# Data reported in PubChem BioAssay (NCI).
#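 Grown in 96-well plates, cells were treated for 48 hours with each compound at five concentrations. Insufficient inhibition: endpoint recorded as highest concentration tested. At the GI50, growth is halved. TGI is the concentration that stops growth completely.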
# How the values were obtained:
# Test in all cases: growth of human tumour cells (NCI), 48 h
# NCI-H460 lung = test system: NCI-H460 lung
# K-562 leukemia = test system: K-562 leukemia
# IGROV1 ovarian = test system: IGROV1 ovarian
# EKVX NSCLC = test system: EKVX NSCLC
# HL-60(TB) leukemia = test system: HL-60(TB) leukemia
# SK-OV-3 ovarian = test system: SK-OV-3 ovarian
# MALME-3M melanoma = test system: MALME-3M melanoma
# 786-0 renal = test system: 786-0 renal
# MDA-N = test system: MDA-N
# SK-MEL-5 melanoma = test system: SK-MEL-5 melanoma
# RXF 393 renal = test system: RXF 393 renal
SMILES,TGI (NCI-H460 lung) [µM],TGI (K-562 leukemia) [µM],TGI (IGROV1 ovarian) [µM],TGI (EKVX NSCLC) [µM],TGI (HL-60(TB) leukemia) [µM],TGI (SK-OV-3 ovarian) [µM],TGI (MALME-3M melanoma) [µM],TGI (786-0 renal) [µM],TGI (MDA-N) [µM],TGI (SK-MEL-5 melanoma) [µM],TGI (RXF 393 renal) [µM],GI50 (NCI-H460 lung) [µM],GI50 (K-562 leukemia) [µM],GI50 (IGROV1 ovarian) [µM],GI50 (EKVX NSCLC) [µM],GI50 (HL-60(TB) leukemia) [µM],GI50 (MALME-3M melanoma) [µM],GI50 (RXF 393 renal) [µM],GI50 (SK-MEL-5 melanoma) [µM]
COc1ccc(CSc2ccccc2Cn2cccc2)cc1OC,> 100,> 100,> 100,> 100,> 100,> 100,> 100,> 100,> 100,> 100,,,,,,,,,
CCCc1ccc(NCc2cc(OC)c(OC)c(OC)c2)cc1,> 100,51.6,> 100,> 100,,66.3,50.4,50.3,,32.5,61.7,,,,,,,,
CC(C)=C/C=C1/CS(=O)(=O)C=C1C,,> 100,> 100,> 100,> 100,> 100,> 100,> 100,> 100,> 100,> 100,,,,,,,,
CC(C)(CC(O)C#N)/[N+]([O-])=[N+](\[O-])C(C)(C)CC(O)C#N (centres undefined),> 100,42.5,49.6,> 100,,> 100,54.2,47.5,59.5,> 100,35.4,,,,,,,,
COc1ccc(-n2cnc3c(NC(CCSC)C(=O)O)ncnc32)cc1 (centres undefined),> 100,> 100,> 100,> 100,,> 100,,> 100,> 100,> 100,,,,,,,,,
Cc1cc(NCCCCCCCNc2cc(C)nc3cc([N+](=O)[O-])ccc23)c2ccc([N+](=O)[O-])cc2n1,6.36,,37.1,35.9,,49.3,> 71.1,39.3,3.18,29.9,22.9,,,,,,,,
O=C1C[C@@H](c2ccccc2)O[C@@H](c2ccccc2)C1,> 100,> 100,> 100,> 100,,> 100,> 100,> 100,> 100,> 100,> 100,,,,,,,,
CC1OC(O[C@H]2/C=C/C=C/C=C/C=C/C=C/C=C/C=C/[C@H](C)[C@@H](O)[C@@H](C)[C@H](C)OC(=O)CC(O)CC(O)CCC(O)C(O)CC(O)C[C@]3(O)C[C@H](O)C(C(=O)O)C(C2)O3)C(O)[C@H](N)C1O (some centres undefined),4.84,> 100,4.73,11,10.9,,3.68,,,12.8,3.95,2.14,30.1,2.31,3.4,3.79,1.88,1.84,3.51
CCC[C@H](C)C[C@H](C)C[C@H](C)/C=C(\C)[C@@H](O)[C@@H](C)C(=O)CC,53.4,38,36.2,34.7,36.2,> 100,33.6,35.7,,36.1,40,,,,,,,,
O=c1onc2c3ccccc3ncn12,,> 100,> 100,> 100,,> 100,,> 100,,> 100,> 100,,,,,,,,
